According to patent US5817670A, “Naphthyridine derivatives and pharmaceutical compositions thereof” (Yamanouchi Pharmaceutical Co., Ltd., priority 1994, dated 1998):
Counter-ions that a name gives are not always drawn.

Legend:
[1] = target: type III phosphodiesterase; test: Phosphodiesterase inhibition activity (in vitro), Type III; type: biochemical, rat
Excerpt: (§1) (A) In order to evaluate selectivity of the compounds of the present invention for type IV phosphodiesterase, types I, II, III and V phosphodiesterase isozymes were purified in the following manner.
(§2) 1) Solutions containing various phosphodiesterase (types I, II and III) isozymes were purified from rat heart muscle cells in the following manner. Under ether anesthesia, Wistar rat was subjected to thoracotomy to excise the heart. After removing blood by perfusion with physiological saline supplemented with heparin (1 unit/ml), the heart was finely chopped with scissors. This was suspended in buffer A (20 mM Bis-Tris, 5 mM dithioerythritol, 2 mM EGTA and 50 mM sodium acetate, pH 6.5) containing a protease inhibitor (50 μM phenyl-methyl-sulfonyl-fluoride, 5 μM pepstatin A, 40 μM leupeptin, 20 μM aprotinin or 2 mM benzamidine) and then the cells were disrupted using polytron and sonicator and subjected to ultracentrifugation (4° C., 100,000×g, 60 minutes) to give a soluble fraction.
(§3) 2) Solutions containing various phosphodiesterase isozymes were obtained from the thus obtained soluble fraction in the following manner. The thus, obtained soluble fraction was applied to a column of 1.6×10.0 cm packed with Q Sepharose which had been equilibrated with buffer A. Next, said column was washed with 300 ml of buffer A to remove non-absorbed protein. Phosphodiesterase was eluted with 200 ml of buffer A having 0.05 to 1.25M linear gradient of sodium acetate to collect about 40 fractions each containing 5.0 ml eluate. Each fraction was checked for cAMP- and cGMP-metabolizing phosphodiesterase activities. Of these fractions, a fraction having only cAMP-metabolizing activity and showing disappearance of the metabolizing activity by 0.1 μM cilostamide (a type III phosphodiesterase selective inhibitor) was used as the type III phosphodiesterase. […] These fractions were separately collected to be used as phosphodiesterase (types I, II and III) stock solutions for the examination of selectivity. p1 3) A solution containing type V phosphodiesterase was prepared from peripheral blood of a healthy person in the following manner. A 200 ml portion of physiological saline supplemented with dextran (3%) was added to 500 ml of heparinized peripheral blood and incubated at 37° C. for 40 minutes to effect precipitation of erythrocytes. The supernatant fluid after precipitation of erythrocytes was recovered and centrifuged once, and the resulting precipitate was suspended in buffer B (140 mM NaCl, 5 mM KCl, 5 mm glucose and 10 mM HEPES, pH 7.4), overlaid on a solution for density gradient centrifugation use (Ficoll solution) and then centrifuged at room temperature for 40 minutes at 450×g, thereby separating monocyte fraction and granulocyte fraction. The granulocyte fraction was washed once with buffer C (140 mM NaCl, 5 mM KCl, 1 mM CaCl2, 1 mM MgCl2, 5 mM glucose and 10 mM HEPES, pH 7.4) and suspended in buffer D (20 mM Bis-Tris, 5 mM dithioerythritol, 2 mM EGTA and 50 mM sodium acetate, pH 6.5) containing a protease inhibitor (40 μM leupeptin, 5 μM pepstatin A, 20 μM aprotinin, 50 μM phenyl-methyl-sulfonyl-fluoride or 2 mM benzamidine) and then the cells were disrupted using polytron and sonicator and subjected to ultracentrifugation (4° C., 100,000×g, 60 minutes) to give a soluble fraction.
(§4) (B) Inhibitory activities were measured using the thus obtained stock solutions of various phosphodiesterase isozymes.
(§5) 1) A predetermined amount of each compound to be tested was subjected to 10 minutes of reaction at 30° C. in a reaction mixture containing 40 mM Tris-HCl (pH 8.0), 5 mM MgCl2, 4 mM 2-mercaptoethanol, 10 μM rolipram (a type IV phosphodiesterase selective inhibitor), 1 μM cAMP, 10 nM ^3 H-cAMP (in the case of type V phosphodiesterase, 1 μM cAMP and 10 nM ^3 H-cAMP are replaced by 1 μM cGMP and 100 nM ^3 H-cGMP) and each of the isozyme stock solutions. […]

type I phosphodiesterase = test: Phosphodiesterase inhibition activity (in vitro), Type I; type: biochemical, rat
Excerpt: as §1, §2, §3, §4, §5

[2] = target: T1, type II phosphodiesterase (Rattus norvegicus, UniProt Q01062); test: Phosphodiesterase inhibition activity (in vitro), Type II; type: biochemical; conditions: Type II phosphodiesterase column
T1 construct: purified from rat heart muscle cells; from tissue; host or cells: rat heart, soluble fraction, Q Sepharose
T1 sequence (Q01062 1-928): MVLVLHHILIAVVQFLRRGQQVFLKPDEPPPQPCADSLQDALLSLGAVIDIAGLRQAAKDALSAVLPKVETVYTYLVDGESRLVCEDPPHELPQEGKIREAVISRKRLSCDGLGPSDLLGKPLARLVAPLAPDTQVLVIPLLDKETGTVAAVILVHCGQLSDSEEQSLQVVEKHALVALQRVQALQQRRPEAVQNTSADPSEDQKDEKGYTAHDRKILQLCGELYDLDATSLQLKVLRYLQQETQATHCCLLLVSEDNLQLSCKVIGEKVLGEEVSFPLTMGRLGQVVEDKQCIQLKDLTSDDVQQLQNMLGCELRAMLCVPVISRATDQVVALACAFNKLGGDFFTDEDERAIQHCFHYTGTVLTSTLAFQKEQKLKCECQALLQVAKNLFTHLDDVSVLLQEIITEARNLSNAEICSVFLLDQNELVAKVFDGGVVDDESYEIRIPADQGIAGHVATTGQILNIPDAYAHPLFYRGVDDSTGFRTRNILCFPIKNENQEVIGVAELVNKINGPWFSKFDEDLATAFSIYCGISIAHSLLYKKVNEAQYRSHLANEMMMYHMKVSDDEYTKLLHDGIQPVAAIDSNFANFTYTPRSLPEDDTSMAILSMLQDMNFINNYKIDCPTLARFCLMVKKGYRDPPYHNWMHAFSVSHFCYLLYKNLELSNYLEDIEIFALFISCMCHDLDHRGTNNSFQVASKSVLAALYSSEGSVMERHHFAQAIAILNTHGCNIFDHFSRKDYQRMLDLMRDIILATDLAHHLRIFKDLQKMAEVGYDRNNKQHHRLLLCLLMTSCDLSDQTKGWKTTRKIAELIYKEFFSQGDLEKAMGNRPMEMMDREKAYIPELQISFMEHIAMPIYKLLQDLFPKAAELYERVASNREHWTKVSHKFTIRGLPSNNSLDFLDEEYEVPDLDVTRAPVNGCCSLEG
Excerpt: as §1, §2, §3, §4, §5

IC50 [1] [µM] | IC50 (type I phosphodiesterase) [µM] | IC50 [2] [µM] | Compound
17.7 | 0.0143 | 35.4 | CCCn1c(=O)cc(-c2cccc(Br)c2)c2c(C)cc(CC)nc21 [Example 33, 4-(3-Bromophenyl)-7-ethyl-5-methyl-1-propyl-1,8-naphthyridin-2(1H)-one]
27.3 | 0.0337 | 22.8 | CCc1cc(C)c2c(C3CCCCC3)cc(=O)n(CC)c2n1 [Example 49, 4-cyclohexyl-1,7-diethyl-5-methyl-1,8-naphthyridin-2(1H)-one]
> 30 | 0.0389 | > 30 | CCn1c(=O)cc(C2CCCCC2)c2cccnc21 [Example 46, 4-cyclohexyl-1-ethyl-1,8-naphthyridin-2(1H)-one 0.45 hydrochloride 0.25 hydrate]
50.3 | 0.0338 | 20.8 | CCn1c(=O)cc(-c2cccc(Cl)c2)c2cccnc21 [Example 15, 4-(3-Chlorophenyl)-1-ethyl-1,8-naphthyridin-2(1H)-one]
15.5 | 0.0213 | 25.6 | CCc1cc(C)c2c(-c3cccc(Cl)c3)cc(=O)n(C)c2n1 [Example 27, 4-(3-Chlorophenyl)-7-ethyl-1,5-dimethyl-1,8-naphthyridin-2(1H)-one]
56.2 | 0.0234 | 30 | CCc1cc(C)c2c(-c3ccccc3)cc(=O)n(C)c2n1 [Example 26, 7-Ethyl-1,5-dimethyl-4-phenyl-1,8-naphthyridin-2(1H)-one]
> 30 | 0.0043 | > 30 | CCc1cc(C)c2c(-c3cccc(Br)c3)cc(=O)n(CC)c2n1 [Example 31, 4-(3-bromophenyl)-1,7-diethyl-5-methyl-1,8-naphthyridin-2(1H)-one]
> 30 | 0.016 | > 30 | CCc1cc(C)c2c(-c3cccc(Cl)c3)cc(=S)n(C)c2n1 [Example 43, 4-(3-chlorophenyl)-7-ethyl-1,5-dimethyl-1,8-naphthyridine-2(1H)-thione]
> 30 | 0.0124 | 26.1 | CCn1c(=O)cc(-c2ccccc2)c2c(C)cc(C)nc21 [Example 38, 1-Ethyl-5,7-dimethyl-4-phenyl-1,8-naphthyridin-2(1H)-one]
32.3 | 0.0129 | 20.5 | CCc1cc(C)c2c(-c3ccccc3)cc(=O)n(CC)c2n1 [Example 40, 1,7-Diethyl-5-methyl-4-phenyl-1,8-naphthyridin-2(1H)-one]
34.4 | 0.0242 | 22.3 | CCc1cc(C)c2c(-c3cccc(Cl)c3)cc(=O)n(C3CC3)c2n1 [Example 35, 4-(3-Chlorophenyl)-1-cyclopropyl-7-ethyl-5-methyl-1,8-naphthyridin-2(1H)-on]
14.3 | 0.0116 | 15.5 | CCn1c(=O)cc(-c2cccc(Cl)c2)c2c(C)cc(C)nc21 [Example 29, 4-(3-Chlorophenyl)-1-ethyl-5,7-dimethyl-1,8-naphthyridin-2(1H)-one]
10.9 | 0.0099 | 10.5 | CCn1c(=O)cc(-c2cccc(Br)c2)c2c(C)cc(C)nc21 [Example 30, 4-(3-Bromophenyl)-1-ethyl-5,7-dimethyl-1,8-naphthyridin-2(1H)-one]
21.5 | 0.0419 | 51.8 | Cc1cc(C)c2c(-c3cccc(Cl)c3)cc(=O)n(C)c2n1 [Example 24, 4-(3-chlorophenyl)-1,5,7-trimethyl-1,8-naphthyridin-2(1H)-one]
